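Protocol summary: plate cells (96-well), add compound at 5 concentrations, incubate 48 h, interpolate endpoints linearly. GI50 marks 50% less growth. Definition used: TGI = concentration required for complete inhibition of growth.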 A value given as a limit tells only on which side of the number the result lay.

Test systems include 786-0 renal; HCT-116 colon; K-562 leukemia; NCI-H226 lung; NCI-H23 lung; SF-268 CNS; SN12C renal; SNB-19 CNS; TK-10 renal; UACC-62 melanoma.
Common to all, as to assay: growth of human tumour cells (NCI), 48 h

For the compound `CCOc1cccc(/C=N/NC(=O)c2ccc(Nc3ccnc(C(F)(F)F)c3)cc2)c1O`, the GI50 was 951 nM in the test on 786-0 renal; 367 nM in the test on HCT-116 colon; 947 nM with K-562 leukemia; 2080 nM with NCI-H226 lung; 2260 nM in the test on NCI-H23 lung; 1070 nM in the test on SF-268 CNS. Besides, the GI50 in the test on SN12C renal was 2450 nM; in the test with SNB-19 CNS, 4690 nM; with TK-10 renal, 2480 nM; in the test on UACC-62 melanoma, 774 nM. In addition, the TGI with 786-0 renal is more than 94300 nM; in the test with HCT-116 colon it was more than 71500 nM; with K-562 leukemia it was more than 31600 nM; in the test on NCI-H226 lung, 22500 nM; in the test with NCI-H23 lung, 38600 nM; in the test on SF-268 CNS, more than 100000 nM. For the same compound, the TGI in the test with SN12C renal is more than 100000 nM; in the test with SNB-19 CNS, more than 100000 nM; in the test on TK-10 renal, more than 100000 nM; with UACC-62 melanoma, more than 61000 nM.

In the case of `COc1cc(C2=NN(C)C(c3ccc([N+](=O)[O-])o3)C2)cc(OC)c1OC` (centres undefined), the TGI was 42700 nM with 786-0 renal; more than 100000 nM in the test with HCT-116 colon; more than 100000 nM in the test on K-562 leukemia; more than 100000 nM with NCI-H226 lung; more than 100000 nM with NCI-H23 lung; more than 100000 nM in the test on SF-268 CNS. Also, the TGI in the test with SN12C renal, with SNB-19 CNS, in the test on TK-10 renal and in the test on UACC-62 melanoma was more than 100000 nM in each case.

For the compound `O=C(CN1CCN(c2ncnc3ccccc23)CC1)Nc1ccc(Cl)cc1C(=O)c1ccccc1Cl`, the GI50 in the test on 786-0 renal was 356 nM; in the test with HCT-116 colon, 417 nM; in the test on K-562 leukemia, 838 nM; in the test on NCI-H226 lung, 1150 nM; with NCI-H23 lung, 1180 nM; in the test on SF-268 CNS it was 686 nM. Besides, the GI50 in the test on SN12C renal was 943 nM; with SNB-19 CNS it was 1710 nM; in the test with TK-10 renal, 501 nM; in the test with UACC-62 melanoma it was 579 nM. Further, the TGI is 12300 nM with 786-0 renal; 11000 nM in the test on HCT-116 colon; more than 52400 nM in the test with K-562 leukemia; 6260 nM in the test on NCI-H226 lung; 3870 nM in the test on NCI-H23 lung; 13000 nM in the test on SF-268 CNS. In addition, the figures for the TGI in the test with SNB-19 CNS, in the test on TK-10 renal and in the test on UACC-62 melanoma were 12200 nM, 4440 nM and 1500 nM, respectively.

Consider `CN(C)c1ccc(N2Cc3ccccc3OC3=C2C(=O)c2c(O)ccc(O)c2C3=O)cn1`, for which the GI50 in the test with 786-0 renal is 204 nM; with HCT-116 colon, 124 nM; in the test with K-562 leukemia it was 177 nM; in the test on NCI-H226 lung, 854 nM; in the test with NCI-H23 lung, 277 nM; in the test with SF-268 CNS it was 370 nM. Further, the GI50 was 261 nM in the test with SN12C renal, 563 nM with SNB-19 CNS, 348 nM in the test on TK-10 renal and 211 nM with UACC-62 melanoma. Moreover, the TGI in the test with 786-0 renal is 423 nM; in the test on HCT-116 colon it was 288 nM; with K-562 leukemia it was 1580 nM; with NCI-H226 lung it was 3660 nM; in the test on NCI-H23 lung it was 927 nM; with SF-268 CNS, 1590 nM. Further, the TGI with SN12C renal worked out at 1030 nM; in the test with SNB-19 CNS, 2240 nM; in the test with TK-10 renal, 908 nM; with UACC-62 melanoma it was 638 nM.

Turning to `COC(=O)C1=C(O)c2cc(OC)c(OC)c(OC)c2[C@H](c2cc(OC)c(OC)c(OC)c2)C1C(=O)OC` (some centres undefined), the TGI is more than 100000 nM with 786-0 renal; more than 100000 nM in the test with HCT-116 colon; 86100 nM in the test with K-562 leukemia; more than 100000 nM with NCI-H226 lung; more than 100000 nM with NCI-H23 lung; more than 100000 nM in the test with SF-268 CNS. For the same compound, the TGI with SN12C renal was more than 100000 nM; in the test with SNB-19 CNS, more than 100000 nM; in the test on TK-10 renal, more than 100000 nM; in the test on UACC-62 melanoma, 76000 nM.

As to `CC(=O)N1c2ccccc2C23CCN(C)CC4C(C)OCC(C4CC2=O)C13` (centres undefined), the TGI with 786-0 renal, with HCT-116 colon, with K-562 leukemia, with NCI-H226 lung, in the test with NCI-H23 lung and in the test on SF-268 CNS was more than 100000 nM in each case. The TGI with SN12C renal, in the test with SNB-19 CNS, in the test with TK-10 renal and in the test on UACC-62 melanoma was more than 100000 nM in each case.

Regarding `N#C/C(=C\c1ccc(-c2ccc(Cl)cc2)o1)C(=O)Nc1ncc(Cc2ccc(Cl)cc2)s1`, the GI50 with 786-0 renal is 1770 nM; with HCT-116 colon, 1410 nM; with K-562 leukemia, 3920 nM; in the test with NCI-H226 lung, 2080 nM; in the test on NCI-H23 lung, 1820 nM; with SF-268 CNS it was 2680 nM. Moreover, the GI50 in the test with SN12C renal was 1280 nM; in the test with SNB-19 CNS, 2770 nM; with TK-10 renal it was 2000 nM; with UACC-62 melanoma it was 2110 nM. The TGI in the test with 786-0 renal is 3470 nM; with HCT-116 colon, 3510 nM; in the test with K-562 leukemia, more than 100000 nM; in the test with NCI-H226 lung it was 5410 nM; with NCI-H23 lung, 4170 nM; in the test on SF-268 CNS it was 19800 nM. The TGI is 3320 nM in the test with SN12C renal, 12800 nM in the test with SNB-19 CNS, 3710 nM with TK-10 renal and 6570 nM in the test on UACC-62 melanoma.

The record behind these values is PubChem BioAssay (NCI).
